{"source": "paper PMC9395446", "about": "“First-in-human phase 1/1b study to evaluate sitravatinib in patients with advanced solid tumors” (Investigational New Drugs, 2022)", "assay": "Safety in phase 1/1b study (DLTs, TRAEs, TEAEs; CTCAE v4.03)", "format": "in vivo, human", "text": "Safety assessments included evaluation of DLTs, AEs, physical examinations, vital sign measurements, electrocardiogram recordings and laboratory tests.\nA DLT was defined as a grade ≥ 4 hematologic abnormality lasting ≥ 4 days; grade 3 thrombocytopenia with clinically significant bleeding; febrile neutropenia; clinically significant grade ≥ 3 non-hematologic AEs not related to underlying malignancy; intolerable grade 2 AEs; or toxicity resulting in an inability to deliver 80% of the dose during the first treatment cycle.\nThe safety population included all patients who received ≥ 1 dose of sitravatinib. […] The PK evaluable population included all patients with sufficient concentration-time data for PK parameter evaluation. The modified intent-to-treat (mITT) population included all phase 1b patients who received ≥ 1 dose of study drug.", "key": {"[1]": {"conditions": "safety population (N = 193), any grade"}}}
{"smiles": "COCCNCc1ccc(-c2cc3nccc(Oc4ccc(NC(=O)C5(C(=O)Nc6ccc(F)cc6)CC5)cc4F)c3s2)nc1", "note": "[sitravatinib, Sitravatinib]", "values": [{"measurement": "Metabolism and nutrition disorders TEAE, any grade", "setting": "Phase 1", "result": "21 (65.6) n (%)"}, {"measurement": "Metabolism and nutrition disorders TEAE, grade ≥3", "setting": "Phase 1", "result": "4 (12.5) n (%)"}, {"measurement": "Musculoskeletal and connective tissue disorders TEAE, any grade", "setting": "Phase 1", "result": "19 (59.4) n (%)"}, {"measurement": "Nausea TEAE, any grade", "setting": "Phase 1", "result": "13 (40.6) n (%)"}, {"measurement": "Nausea TEAE, grade ≥3", "setting": "Phase 1", "result": "1 (3.1) n (%)"}, {"measurement": "Nausea TRAE, any grade", "setting": "Phase 1", "result": "6 (18.8) n (%)"}, {"measurement": "Nausea TRAE, grade ≥3", "setting": "Phase 1", "result": "0 n (%)"}, {"measurement": "Neoplasms benign, malignant, unspecified TEAE, any grade", "setting": "Phase 1", "result": "3 (9.4) n (%)"}, {"measurement": "Neoplasms benign, malignant, unspecified TEAE, grade ≥3", "setting": "Phase 1", "result": "3 (9.4) n (%)"}, {"measurement": "Nervous system disorders TEAE, any grade", "setting": "Phase 1", "result": "14 (43.8) n (%)"}, {"measurement": "PPE syndrome TEAE, any grade", "setting": "Phase 1", "result": "4 (12.5) n (%)"}, {"measurement": "PPE syndrome TEAE, grade ≥3", "setting": "Phase 1", "result": "1 (3.1) n (%)"}, {"measurement": "PPE syndrome TRAE, any grade", "setting": "Phase 1", "result": "4 (12.5) n (%)"}, {"measurement": "PPE syndrome TRAE, grade ≥3", "setting": "Phase 1", "result": "1 (3.1) n (%)"}, {"measurement": "Pain in extremity TEAE, any grade", "setting": "Phase 1", "result": "2 (6.3) n (%)"}, {"measurement": "Proteinuria TEAE, any grade", "setting": "Phase 1", "result": "2 (6.3) n (%)"}, {"measurement": "Proteinuria TRAE, any grade", "setting": "Phase 1", "result": "2 (6.3) n (%)"}, {"measurement": "Proteinuria TRAE, grade ≥3", "setting": "Phase 1", "result": "0 n (%)"}, {"measurement": "Psychiatric disorders TEAE, any grade", "setting": "Phase 1", "result": "7 (21.9) n (%)"}, {"measurement": "Psychiatric disorders TEAE, grade ≥3", "setting": "Phase 1", "result": "1 (3.1) n (%)"}, {"measurement": "Rash TEAE, any grade", "setting": "Phase 1", "result": "5 (15.6) n (%)"}, {"measurement": "Rash TEAE, grade ≥3", "setting": "Phase 1", "result": "0 n (%)"}, {"measurement": "Rash TRAE, any grade", "setting": "Phase 1", "result": "4 (12.5) n (%)"}, {"measurement": "Rash TRAE, grade ≥3", "setting": "Phase 1", "result": "0 n (%)"}, {"measurement": "Renal and urinary disorders TEAE, any grade", "setting": "Phase 1", "result": "9 (28.1) n (%)"}, {"measurement": "Respiratory, thoracic and mediastinal disorders TEAE, any grade", "setting": "Phase 1", "result": "22 (68.8) n (%)"}, {"measurement": "Respiratory, thoracic and mediastinal disorders TEAE, grade ≥3", "setting": "Phase 1", "result": "4 (12.5) n (%)"}, {"measurement": "Serious TEAE", "setting": "Phase 1", "result": "9 (28.1) n (%)"}, {"measurement": "Serious TRAE", "setting": "Phase 1", "result": "3 (9.4) n (%)"}, {"measurement": "Skin and subcutaneous tissue disorders TEAE, any grade", "setting": "Phase 1", "result": "21 (65.6) n (%)"}, {"measurement": "Skin and subcutaneous tissue disorders TEAE, grade ≥3", "setting": "Phase 1", "result": "1 (3.1) n (%)"}, {"measurement": "Stomatitis TEAE, any grade", "setting": "Phase 1", "result": "4 (12.5) n (%)"}, {"measurement": "Stomatitis TEAE, grade ≥3", "setting": "Phase 1", "result": "0 n (%)"}, {"measurement": "Stomatitis TRAE, any grade", "setting": "Phase 1", "result": "3 (9.4) n (%)"}, {"measurement": "Stomatitis TRAE, grade ≥3", "setting": "Phase 1", "result": "0 n (%)"}, {"measurement": "TEAE grade ≥3", "setting": "Phase 1", "result": "20 (62.5) n (%)"}, {"measurement": "TEAE leading to death", "setting": "Phase 1", "result": "3 (9.4) n (%)"}, {"measurement": "TEAE leading to discontinuation", "setting": "Phase 1", "result": "5 (15.6) n (%)"}, {"measurement": "TEAE leading to treatment modification", "setting": "Phase 1", "result": "13 (40.6) n (%)"}, {"measurement": "TRAE grade ≥3", "setting": "Phase 1", "result": "10 (31.3) n (%)"}, {"measurement": "TRAE leading to death", "setting": "Phase 1", "result": "0 n (%)"}, {"measurement": "TRAE leading to discontinuation", "setting": "Phase 1", "result": "2 (6.3) n (%)"}, {"measurement": "TRAE leading to treatment modification", "setting": "Phase 1", "result": "12 (37.5) n (%)"}, {"measurement": "UTI TEAE, any grade", "setting": "Phase 1", "result": "3 (9.4) n (%)"}, {"measurement": "UTI TEAE, grade ≥3", "setting": "Phase 1", "result": "2 (6.3) n (%)"}, {"measurement": "Vascular disorders TEAE, any grade", "setting": "Phase 1", "result": "13 (40.6) n (%)"}, {"measurement": "Vascular disorders TEAE, grade ≥3", "setting": "Phase 1", "result": "6 (18.8) 6 (18.8) n (%)"}, {"measurement": "Vomiting TEAE, any grade", "setting": "Phase 1", "result": "11 (34.4) n (%)"}, {"measurement": "Vomiting TEAE, grade ≥3", "setting": "Phase 1", "result": "1 (3.1) n (%)"}, {"measurement": "Vomiting TRAE, any grade", "setting": "Phase 1", "result": "6 (18.8) n (%)"}, {"measurement": "Vomiting TRAE, grade ≥3", "setting": "Phase 1", "result": "0 n (%)"}, {"measurement": "Weight decreased TEAE, any grade", "setting": "Phase 1", "result": "4 (12.5) n (%)"}, {"measurement": "Weight decreased TEAE, grade ≥3", "setting": "Phase 1", "result": "0 n (%)"}, {"measurement": "Weight decreased TRAE, any grade", "setting": "Phase 1", "result": "2 (6.3) n (%)"}, {"measurement": "Weight decreased TRAE, grade ≥3", "setting": "Phase 1", "result": "0 n (%)"}, {"measurement": "Recommended dose for further exploration", "setting": "QD, defined in phase 1b due to tolerability", "result": 120, "unit": "mg"}, {"measurement": "Maximum tolerated dose (MTD)", "setting": "daily (QD), phase 1 dose escalation, mTPI method", "result": 150, "unit": "mg"}, {"measurement": "TRAE leading to death (cardiac arrest)", "setting": "overall population", "result": 0.5, "unit": "%"}, {"measurement": "Patients with DLT", "setting": "phase 1, 80 mg", "result": "one"}, {"measurement": "Patients with DLT", "setting": "phase 1, 200 mg", "result": "three"}, {"measurement": "DLT-evaluable phase 1 patients with a DLT", "setting": "phase 1, 10–200 mg", "result": 14.3, "unit": "%"}, {"measurement": "DLT-evaluable phase 1 patients with a DLT (n/N)", "setting": "phase 1, 10–200 mg", "result": "4/28"}, {"measurement": "Each reported DLT (fatigue, mucosal inflammation, peripheral sensory neuropathy, PPE syndrome), share of phase 1 population", "setting": "phase 1, n = 1 each", "result": 3.6, "unit": "%"}, {"measurement": "Discontinuation due to diarrhea, nausea and fatigue (each)", "setting": "safety population (N = 193)", "result": 2.1, "unit": "%"}, {"measurement": "Grade ≥ 3 TRAE diarrhea", "setting": "safety population (N = 193)", "result": 10.4, "unit": "%"}, {"measurement": "Grade ≥ 3 TRAE fatigue", "setting": "safety population (N = 193)", "result": 7.3, "unit": "%"}, {"measurement": "Grade ≥ 3 TRAE hypertension", "setting": "safety population (N = 193)", "result": 20.7, "unit": "%"}, {"measurement": "Patients discontinued due to TRAEs", "setting": "safety population (N = 193)", "result": 13.5, "unit": "%"}, {"measurement": "Patients with any TRAE", "setting": "safety population (N = 193)", "result": 90.2, "unit": "%"}, {"measurement": "Patients with grade ≥ 3 TRAEs", "setting": "safety population (N = 193)", "result": 53.4, "unit": "%"}, {"measurement": "TRAEs leading to treatment modification (dose reduction or interruption)", "setting": "safety population (N = 193)", "result": 62.2, "unit": "%"}, {"measurement": "Treatment modification due to PPE syndrome", "setting": "safety population (N = 193)", "result": 11.9, "unit": "%"}, {"measurement": "Treatment modification due to diarrhea", "setting": "safety population (N = 193)", "result": 17.6, "unit": "%"}, {"measurement": "Treatment modification due to fatigue", "setting": "safety population (N = 193)", "result": 15.0, "unit": "%"}, {"measurement": "Treatment modification due to hypertension", "setting": "safety population (N = 193)", "result": 15.0, "unit": "%"}, {"measurement": "TRAE diarrhea", "setting": "[1]", "result": 50.8, "unit": "%"}, {"measurement": "TRAE fatigue", "setting": "[1]", "result": 43.0, "unit": "%"}, {"measurement": "TRAE hypertension", "setting": "[1]", "result": 40.4, "unit": "%"}, {"measurement": "TRAE nausea", "setting": "[1]", "result": 30.1, "unit": "%"}]}
